Results from patent publication US10632179B2, “Methods and compositions for treating cancer” (Case Western Reserve University, priority 2013, dated 2020).

Tested on: heterotopic GBM flank tumor model
Assay: Heterotopic xenograft flank tumor treatment with peptide
Type: in vivo, nude mice
Set-up: dose or concentration left out as unconfirmed
Settings: flank tumors of mice intravenously administered peptide; compared with scrambled control polypeptide; FIG. 2
Experimental: In this Example, we tested the efficacy of the SBK2 peptide in treating primary human brain tumor xenografts. The studies were performed using an imaging dose of the SBK2 peptide probe in 3 sequential injections that were two days apart in a heterotopic GBM flank tumor model.
Human Gli36Δ5 glioblastoma cells constitutively over-express the vIII mutant forms of the EGFR gene (Tyminski E, Leroy S, Terada K, Finkelstein D M, Hyatt J L, Danks M K, Potter P M, Saeki Y, Chiocca E A (2005) Brain tumor oncolysis with replication-conditional herpes simplex virus type 1 expressing the prodrug-activating genes, CYP2B1 and secreted human intestinal carboxylesterase, in combination with cyclophosphamide and irinotecan. Cancer Res 65:6850-6857). Human LN-229 glioblastoma cells were obtained from American Type Culture Collection, Manassas, Va. Gli36Δ5 or LN-229 cells were harvested for flank implantation by trypsinization. […]
On each peptide treatment day, flank tumors were imaged using the Maestro FLEX In Vivo Imaging System. […] Tumors were measured through the skin using calipers; length, width and height of the tumors were recorded on each treatment day. On the day the animals were sacrificed, tumors were measured before removal (through the skin) and after removal.

GEGDDFNWEQVNTLTKPTSD [SBK2]
reduction in tumor volume: 50% | reduction in weight (flank tumor): 35%
